Assay results: patent US20060264419A1 (priority 2003, published 2006)

Target: 5-HT2A receptors (Rattus norvegicus, UniProt P14842)
Assay: in-vitro affinity to 5-HT2A receptors, displacement of [3H]ketanserine (Example A1)
Type: binding
Settings: read-out: HT2A IC50
Description: The 5-HT2A receptors are exposed both to [^3H]ketanserine (a substance which is known for its affinity to the receptor) and also to the test compound. The decrease in the affinity of [^3H]ketanserine to the receptor is an indication of the affinity of the test substance to the 5-HT2A receptor.

Sequence of 5-HT2A receptors (P14842 whole entry): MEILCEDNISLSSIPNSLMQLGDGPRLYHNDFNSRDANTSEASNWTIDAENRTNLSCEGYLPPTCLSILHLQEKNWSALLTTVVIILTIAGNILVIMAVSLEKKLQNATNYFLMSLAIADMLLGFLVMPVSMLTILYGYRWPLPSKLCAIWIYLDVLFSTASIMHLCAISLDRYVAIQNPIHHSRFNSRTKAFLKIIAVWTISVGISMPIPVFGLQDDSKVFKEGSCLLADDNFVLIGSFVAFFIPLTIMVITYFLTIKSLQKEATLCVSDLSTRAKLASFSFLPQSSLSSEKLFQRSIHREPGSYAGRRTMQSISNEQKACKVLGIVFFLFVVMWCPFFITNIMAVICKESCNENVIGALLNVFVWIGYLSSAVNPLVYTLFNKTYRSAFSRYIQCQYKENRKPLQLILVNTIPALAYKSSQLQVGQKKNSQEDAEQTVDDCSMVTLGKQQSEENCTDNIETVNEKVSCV

Going from “1-(Biphenyl-4-yltrifluoromethyl-1H-pyrazol-4-ylmethyl)-4-methylpiperazine [Example 1026]” to `Fc1ccccc1-c1c(CN2CC=CC2)cnn1-c1ccc(-c2ccccc2)cc1` [Example 939, 1-Biphenyl-4-yl-4-(2,5-dihydropyrrol-1-yl-methyl)-5-(2-fluorophenyl)-1H-pyrazole], the IC50 falls from 260 nM to 36 nM (7.2-fold).

`CN(C)C(=O)CNCc1cnn(-c2ccc(-c3ccccc3)cc2)c1-c1ccccc1F` [Example 1010, 2-{[1-Biphenyl-4-yl-5-(2-fluorophenyl)-1H-pyrazol-4-ylmethyl]amino}-N,N-dimethyl-acetamide] and `Cc1ccc(-c2c(CN3CCN(C)CC3)cnn2-c2ccc(-c3ccc(F)cc3)cc2)cc1` [Example 994, 1-[1-(4′-Fluorobiphenyl-4-yl)-5-p-tolyl-1H-pyrazol-4-ylmethyl]-4-methylpiperazine] are within 1.5-fold of each other in IC50: 200 nM for the first, 140 nM for the second.

First: CN(C)Cc1ccccc1-c1ccc(-n2ncc(CN3CCN(C)CC3)c2-c2ccccc2F)cc1 [Example 970, {4′-[5-(2-Fluorophenyl)-4-(4-methyl-piperazin-1-ylmethyl)pyrazol-1-yl]biphenyl-2-ylmethyl}-dimethylamine]
Second: OCc1cnn(-c2ccc(-c3ccc(F)cc3)cc2)c1-c1ccccc1Cl [Example 1048, [5-(2-Chlorophenyl)-1-(4′-fluoro-biphenyl-4-yl)-1H-pyrazol-4-yl]methanol]
The IC50 of the first is 4.7-fold lower: 81 nM for the first, 380 nM for the second. The first is the more potent here.

Going from `CN1CCN(Cc2cnn(-c3ccc(-c4ccc(F)cc4F)cc3)c2-c2ccccc2F)CC1` [Example 955, 1-[1-(2′,4′-Difluorobiphenyl-4-yl)-5-(2-fluoro-phenyl)-1H-pyrazol-4-ylmethyl]-4-methyl-piperazine] to `Fc1ccccc1-c1c(CN2CCN(Cc3ccsc3)CC2)cnn1-c1ccc(-c2ccccc2)cc1` [Example 1047, 1-[1-Biphenyl-4-yl-5-(2-fluorophenyl)-1H-pyrazol-4-ylmethyl]-4-thiophen-3-ylmethyl-piperazine], the IC50 rises from 56 nM to 380 nM (6.8-fold).

Compared with `CN1CCN(Cc2cnn(-c3ccc(-c4cccc(Cl)c4)cc3)c2-c2ccccc2F)CC1` [Example 963, 1-[1-(3′-Chlorobiphenyl-4-yl)-5-(2-fluoro-phenyl)-1H-pyrazol-4-ylmethyl]-4-methyl-piperazine], `c1ccc(-c2ccc(-n3ncc(CN4CCNCC4)c3-c3ccccn3)cc2)cc1` [Example 1009, 1-(1-Biphenyl-4-yl-5-pyridin-2-yl-1H-pyrazol-4-ylmethyl)piperazine] is 2.9-fold higher in IC50: 69 nM for the first, 200 nM for the second.

Same assay, conditions: target not given; description names affinity to 5-HT2A receptors; read-out: IC50

Going from `CCOC(=O)N1CCN(Cc2cnn(-c3ccc(-c4ccccc4)cc3)c2-c2ccccc2F)CC1` [(182), Ethyl 4-[1-biphenyl-4-yl-5-(2-fluorophenyl)-1H-pyrazol-4-ylmethyl]piperazine-1-carboxylate] to `CCOC(=O)CN1CCN(Cc2cnn(-c3ccc(-c4ccccc4)cc3)c2-c2ccccc2F)CC1` [(73), Ethyl {4-[1-biphenyl-4-yl-5-(2-fluorophenyl)-1H-pyrazol-4-ylmethyl]piperazin-1-yl}acetate], the IC50 rises from 58 nM to 690 nM (12-fold). The first is the more potent here.

First: Nc1ccc(NCc2cnn(-c3ccc(-c4ccc(F)cc4)nc3)c2-c2ccccc2F)cn1 [(194), N^5-{5-(2-Fluorophenyl)-1-[6-(4-fluorophenyl)pyridin-3-yl]-1H-pyrazol-4-ylmethyl}pyridine-2,5-diamine]
Second: COCCN(C)Cc1cnn(-c2ccc(-c3ccc(F)cc3)nc2)c1-c1ccccc1F [(156), {5-(2-Fluorophenyl)-1-[6-(4-fluorophenyl)pyridin-3-yl]-1H-pyrazol-4-ylmethyl}-(2-methoxyethyl)methylamine]
The IC50 of the first is 2-fold higher: 590 nM for the first, 300 nM for the second. The second is the more potent here.

Going from `CCC1(O)CCN(Cc2cnn(-c3ccc(-c4ccccc4)cc3)c2-c2ccccc2F)CC1` [(80), 1-[1-Biphenyl-4-yl-5-(2-fluorophenyl)-1H-pyrazol-4-ylmethyl]-4-ethylpiperidin-4-ol] to `CCN1CCN(Cc2cnn(-c3ccc(-c4ccccc4)cc3)c2-c2ccccc2F)CC1` [(90), 1-[1-Biphenyl-4-yl-5-(2-fluorophenyl)-1H-pyrazol-4-ylmethyl]-4-ethylpiperazine], the IC50 falls from 280 nM to 28 nM (10-fold).

Going from `CN1CCN(Cc2cnn(-c3ccc(-c4ccc(F)cc4)cc3)c2-c2ccccc2)CC1` [(97), 1-[1-(4′-Fluorobiphenyl-4-yl)-5-phenyl-1H-pyrazol-4-ylmethyl]-4-methylpiperazine] to `CN1CCN(Cc2cnn(-c3ccc(-c4ccc(F)cc4)cc3)c2-c2ccccc2F)CC1` [(64), 1-[1-(4′-Fluorobiphenyl-4-yl)-5-(2-fluorophenyl)-1H-pyrazol-4-ylmethyl]-4-methylpiperazine], the IC50 falls from 13 nM to 7.8 nM (1.7-fold).

Compared with `CN1CCN(Cc2cnn(-c3ccc(-n4cccc4)cc3)c2-c2ccccc2F)CC1` [(106), 1-[5-(2-Fluorophenyl)-1-(4-pyrrol-1-ylphenyl)-1H-pyrazol-4-ylmethyl]-4-methylpiperazine], `COc1ccccc1-c1c(CN2CCN(C)CC2)cnn1-c1ccc(-c2ccccc2F)cc1` [(104), 1-[1-(2′-Fluorobiphenyl-4-yl)-5-(2-methoxyphenyl)-1H-pyrazol-4-ylmethyl]-4-methylpiperazine] is 3.1-fold higher in IC50: 17 nM for the first, 52 nM for the second.

Going from `NC(=O)C1CCCN1Cc1cnn(-c2ccc(-c3ccccc3F)nc2)c1-c1ccccc1F` (stereo not drawn) [(145), 1-{5-(2-Fluorophenyl)-1-[6-(2-fluorophenyl)pyridin-3-yl]-1H-pyrazol-4-ylmethyl}pyrrolidine-2-carboxamide] to `Fc1ccccc1-c1ccc(-n2ncc(CN3CCOCC3)c2-c2ccccc2F)cn1` [(146), 4-{5-(2-Fluorophenyl)-1-[6-(2-fluorophenyl)pyridin-3-yl]-1H-pyrazol-4-ylmethyl}morpholine], the IC50 rises from 220 nM to 600 nM (2.7-fold).

Going from `CN1CCN(Cc2cnn(-c3ccc(-c4ccsc4)cc3)c2-c2ccc(F)cc2)CC1` [(102), 1-[5-(4-Fluorophenyl)-1-(4-thiophen-3-ylphenyl)-1H-pyrazol-4-ylmethyl]-4-methylpiperazine] to `CN1CCN(Cc2cnn(-c3ccc(OC(F)(F)F)cc3)c2-c2ccccc2F)CC1` [(115), 1-[5-(2-Fluorophenyl)-1-(4-trifluoromethoxyphenyl)-1H-pyrazol-4-ylmethyl]-4-methylpiperazine], the IC50 falls from 1100 nM to 270 nM (4.1-fold).

First: CN1CCC(N(C)Cc2cnn(-c3ccc(-c4ccccc4)cc3)c2-c2ccccc2F)C1 (stereo not drawn) [(168), [1-Biphenyl-4-yl-5-(2-fluorophenyl)-1H-pyrazol-4-ylmethyl]-methyl-(1-methylpyrrolidin-3-yl)amine]
Second: CCN(CC)Cc1cnn(-c2ccc(-c3ccccc3)cc2)c1-c1ccccc1F [(33), [1-Biphenyl-4-yl-5-(2-fluorophenyl)-1H-pyrazol-4-ylmethyl]-diethylamine]
The IC50 of the first is 3.4-fold lower: 16 nM for the first, 55 nM for the second.

Going from `CN1CC2CC1CN2Cc1cnn(-c2ccc(-c3ccccc3)cc2)c1-c1ccccc1F` (stereo not drawn) [(109), 2-[1-Biphenyl-4-yl-5-(2-fluorophenyl)-1H-pyrazol-4-ylmethyl]-5-methyl-2,5-diazabicyclo[2.2.1]heptane] to `COCCNCc1cnn(-c2ccc(-c3ccccc3)cc2)c1-c1ccccc1F` [(78), [1-Biphenyl-4-yl-5-(2-fluorophenyl)-1H-pyrazol-4-ylmethyl]-(2-methoxyethyl)amine], the IC50 falls from 94 nM to 16 nM (5.9-fold). The second is the more potent here.

`CN(CC(=O)OC(C)(C)C)Cc1cnn(-c2ccc(-c3ccccc3)cc2)c1-c1cccnc1` [(180), tert-Butyl [(1-biphenyl-4-yl-5-pyridin-3-yl-1H-pyrazol-4-ylmethyl)methylamino]acetate] and `COC(=O)CCNCc1cnn(-c2ccc(-c3ccccc3)cc2)c1-c1cccnc1` [(183), Methyl 3-[(1-biphenyl-4-yl-5-pyridin-3-yl-1H-pyrazol-4-ylmethyl)amino]propionate] are within 1.5-fold of each other in IC50: 920 nM for the first, 830 nM for the second.

First: Fc1ccccc1-c1c(CN2CCOCC2)cnn1-c1ccc(-c2cccs2)cc1 [(62), 4-[5-(2-Fluorophenyl)-1-(4-thiophen-2-ylphenyl)-1H-pyrazol-4-ylmethyl]morpholine]
Second: O=C(NCCO)C1CCN(Cc2cnn(-c3ccc(-c4ccccc4)cc3)c2-c2ccccc2F)CC1 [(164), N-(2-Hydroxyethyl)-1-[1-biphenyl-4-yl-5-(2-fluorophenyl)-1H-pyrazol-4-ylmethyl]piperidine-4-carboxamide]
The IC50 of the first is 2.3-fold higher: 620 nM for the first, 270 nM for the second. The second is the more potent here.

Compared with `Nc1ccncc1NCc1cnn(-c2ccc(-c3ccccc3)cc2)c1-c1ccccc1F` [(177), N^3-[1-Biphenyl-4-yl-5-(2-fluorophenyl)-1H-pyrazol-4-ylmethyl]-pyridine-3,4-diamine], `NC(=O)CNCc1cnn(-c2ccc(-c3ccccc3)cc2)c1-c1ccccc1F` [(118), 2-{[1-Biphenyl-4-yl-5-(2-fluorophenyl)-1H-pyrazol-4-ylmethyl]-amino}acetamide] is 4.1-fold higher in IC50: 180 nM for the first, 730 nM for the second. The first is the more potent here.

First: Fc1ccccc1-c1c(CNC2CN3CCC2CC3)cnn1-c1ccc(-c2ccccc2)cc1 (stereo not drawn) [(107), (1-Azabicyclo[2.2.2]oct-3-yl)-[1-biphenyl-4-yl-5-(2-fluorophenyl)-1H-pyrazol-4-ylmethyl]amine]
Second: Fc1ccccc1-c1c(CN2CCC(Cc3cccnc3)CC2)cnn1-c1ccc(-c2ccccc2)cc1 [(195), 3-{1-[1-Biphenyl-4-yl-5-(2-fluorophenyl)-1H-pyrazol-4-ylmethyl]piperidin-4-ylmethyl}pyridine]
The IC50 of the first is 2.1-fold higher: 140 nM for the first, 66 nM for the second.

`CN1CCN(CC(O)CC(O)c2cnn(-c3ccc(-c4ccccc4)cc3)c2-c2ccccc2F)CC1` (stereo not drawn) [(149), 1-[1-Biphenyl-4-yl-5-(2-fluorophenyl)-1H-pyrazol-4-yl]-4-(4-methylpiperazin-1-yl)butane-1,3-diol] and `CN1CCN(C(=O)c2cnn(-c3ccc(-c4ccccc4)cc3)c2-c2ccccc2F)CC1` [(52), 1-[1-Biphenyl-4-yl-5-(2-fluorophenyl)-1H-pyrazol-4-yl]-1-(4-methylpiperazin-1-yl)methanone] are within 1.5-fold of each other in IC50: 620 nM for the first, 820 nM for the second.

For `CN1CCN(Cc2cc(-c3ccccc3F)n(-c3ccc(-c4ccccc4)cc3)n2)CC1` [(45), 1-[1-Biphenyl-4-yl-5-(2-fluorophenyl)-1H-pyrazol-3-ylmethyl]-4-methylpiperazine], the IC50 was 300 nM.
